From patent publication US9796710B2, “Dihydropyrrolopyridine inhibitors of ROR-gamma” (Vitae Pharmaceuticals, Inc., priority 2014, dated 2017)
Like-named read-outs stand apart in the source and are kept apart here.

What was measured:
IL-17A production = assay: Human Whole Blood Assay (Assay 3); type: cell-based; details: IL-17A secretion, CytoStim, 48 h, 50% blood/media
Method: Human Whole Blood Assay (Assay 3)
Compounds of the invention were tested in the human whole blood assay to measure their effects on IL-17A production as determined by cytokine secretion into 50% blood/media supernatant. Mixtures of sodium heparinized whole blood (isolated from healthy human donors) and the T cell activator CytoStim, in the presence or absence of compound, were plated in sterilized, tissue culture-treated 24-well plates. Specifically, the mixtures in each well were as follows: (1) 500 μL of whole blood, (2) 250 μL of compound diluted into RPMI-1640 media containing 10% HyClone™ FCS (Thermo Fisher Scientific, Waltham, Mass.), Gibco® Pen/Strep and Gibco® NEAA (Life Technologies, Grand Island, N.Y.), and (3) 250 μL of CytoStim (Miltenyi Biotech, Germany) diluted to a final concentration of 10 μL/mL in complete cell culture medium.
IL-17A cytokine expression was determined using 25 μL of the transferred supernatant diluted with 25 μL of Diluent 43 from the Human IL-17A V-PLEX™ kit (cat. # K151RFD-4, Meso Scale Discovery, Rockville, Md.). The assay was performed according to the manufacturer's instructions using included reagents. The IL-17A V-PLEX™ plates were read using the Meso Scale Discovery Imager (Model 1200).

[1] = target: recombinant RORγ Ligand Binding Domain (LBD) protein (Homo sapiens (Human), UniProt P51449); assay: Radio-Ligand RORγ Binding Assay (Assay 1); details: read-out: RORγ Binding Ki Range* (nM) (Assay 1)
Method: Radio-Ligand ROR ? Binding Assay (Assay 1)
The plate was shaken at 700 rpm for 20 min and incubated for 10 min at rt, after which 40 μL of poly-Lys YSi SPA beads (PerkinElmer, Cat. # RPNQ0010) were added to achieve 50 μg of the beads per well. The plate was incubated on an orbital shaker for 20 min and then for 10 min without agitation at rt. SPA signal for tritium beta radiation was registered on PerkinElmer Microbeta plate reader. […] The percent inhibition vs. concentration data were fit into a four-parameter model, and IC50 values were calculated from the fit as the concentrations corresponding to the inflection points on the dose-response curves.

[2] = target: full-length RORγt in Jurkat cells (Homo sapiens (Human), UniProt P51449)
Sequence of full-length RORγt in Jurkat cells (P51449 other isoform, or with tags, fused parts or gaps): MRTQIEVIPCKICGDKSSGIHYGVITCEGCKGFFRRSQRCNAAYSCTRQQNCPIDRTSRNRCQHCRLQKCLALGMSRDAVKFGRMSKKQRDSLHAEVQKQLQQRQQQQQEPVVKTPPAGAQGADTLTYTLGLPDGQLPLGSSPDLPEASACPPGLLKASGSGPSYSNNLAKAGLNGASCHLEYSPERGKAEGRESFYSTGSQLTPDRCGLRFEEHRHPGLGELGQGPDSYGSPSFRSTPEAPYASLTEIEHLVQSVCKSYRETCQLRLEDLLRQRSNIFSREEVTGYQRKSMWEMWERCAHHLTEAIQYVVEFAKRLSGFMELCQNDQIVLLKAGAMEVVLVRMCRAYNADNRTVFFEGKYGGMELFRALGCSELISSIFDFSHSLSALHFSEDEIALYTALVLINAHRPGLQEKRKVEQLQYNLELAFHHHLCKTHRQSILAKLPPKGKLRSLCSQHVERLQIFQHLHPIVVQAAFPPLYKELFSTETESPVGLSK
Method: ROR ? t 5×RORE Assay in Jurkat Cells (Assay 2)
Compounds of the present invention were tested for ROR ? inverse agonist activity in a cell-based, transcriptional activity assay. […] Luciferase activity in the conditioned supernatants was determined with NanoGlo® assay reagents (Promega, Cat.# N1130).

Sequence of recombinant RORγ Ligand Binding Domain (LBD) protein (P51449 269-508): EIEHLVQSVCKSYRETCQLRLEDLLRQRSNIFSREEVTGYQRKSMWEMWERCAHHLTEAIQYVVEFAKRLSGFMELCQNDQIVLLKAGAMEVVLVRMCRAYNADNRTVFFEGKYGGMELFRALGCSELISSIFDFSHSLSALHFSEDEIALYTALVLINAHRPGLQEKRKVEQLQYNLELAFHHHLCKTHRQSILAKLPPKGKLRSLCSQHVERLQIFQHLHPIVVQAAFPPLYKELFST

CCS(=O)(=O)c1ccc([C@H](CO)NC(=O)c2cnc3c(c2)CN(C[C@@H]2CC[C@@H](C(F)(F)F)OC2)[C@H]3C(C)C)nc1 [Compound 1]
< 100 nM: IC50 (IL-17A production) | Ki ([1]; cell-free competition with 25-hydroxy [26,27-3H]-cholesterol) | IC50 [2]

CCS(=O)(=O)c1ccc([C@H](CO)NC(=O)c2cnc3c(c2)CN(C[C@H]2CC[C@H](C(F)(F)F)OC2)[C@H]3C(C)C)nc1 [Compound 4]
< 100 nM: IC50 (IL-17A production) | Ki [1] | IC50 [2]
